Laboratory results from patent publication US11840521B2, “Modulators of Mas-related G-protein receptor X4 and related products and methods” (Escient Pharmaceuticals, Inc., priority 2019, dated 2023).
Read-outs that look alike come from different tables or passages of the source.

How the values were obtained:
MRGPRX4 = MRGPRX4 (Homo sapiens, UniProt Q96LA9); test: MRGPR X4 antagonist activity, IP-One Gq HTRF assay in stably transfected HEK cells (versus agonist bilirubin, deoxycholic acid, conjugated bilirubin, urobilin, obeticholic acid or BAR502); assay type: cell-based; set-up: expressed in transfected cells; host or cells: HEK cells, stably transfected
Summary of the method: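 Stably transfected HEK cells expressing human MRGPR X4, seeded overnight, given compounds as 10-point 1:3 curves from 10 uM final top, incubated 1 h at 37° C then 30 min at room temperature. IP-1 measured by IP-One Gq HTRF. IC50 derived from the HTRF ratio.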

[1] = Mouse pharmacokinetics study, 50 mg/kg oral gavage, plasma LC-MS/MS; assay type: in vivo; conditions: male C57BL/6 mice, non-fasted
Experimental: Compounds were formulated in 5% DMSO, 5% Solutol, and […] phosphate buffered saline at a concentration of 5 mg/mL, and typically appeared as a fine homogenous suspension. Male C57BL/6 mice (n=3/compound) were administered a 50 mg/kg dose of each compound by oral gavage under a non-fasted condition. Blood samples were collected via the saphenous vein onto K2-EDTA at 0.25, 0.5, 1, 2, 4, 8 and 24 hours after dosing, and plasma was prepared and stored at […] until analysis. Plasma sample preparation for analysis was done by protein precipitation using acetonitrile (including Celecoxib as an internal standard) followed by centrifugation. Compound concentrations were determined in extracted plasma using LC-MS/MS relative to an 8 point standard curve covering the 1 to 3000 ng/mL range. Non-compartmental analysis using Phoenix WinNonlin was used to estimate pharmacokinetic parameters including area under the curve, clearance, and half-life. The administered dose was confirmed by analysis of residual dosing material by UPLC-UV relative to a single point calibration sample.

[2] = read-out: IC50 (10 μM BAR502) nM, MRGPRX4 antagonists versus 10 μM BAR502 agonist
[3] = versus 10 μM Bilirubin agonist, HEK cells expressing human MRGPR X4, read-out: MRGPR4 Antagonist Activity
[4] = versus 10 μM Bilirubin agonist, read-out: IC50 (Bilirubin agonist)
[5] = versus 20 μM deoxycholic acid, read-out: IC50 (Deoxycholic Acid agonist)
[6] = versus 20 μM obeticholic acid, read-out: IC50 (Obeticholic Acid Agonist)
[7] = versus 50 μM urobilin, read-out: IC50 (Urobilin Agonist)
[8] = versus 100 μM conjugated bilirubin, read-out: IC50 (Conjugated Bilirubin Agonist)

MRGPRX4, sequence (Q96LA9 whole entry): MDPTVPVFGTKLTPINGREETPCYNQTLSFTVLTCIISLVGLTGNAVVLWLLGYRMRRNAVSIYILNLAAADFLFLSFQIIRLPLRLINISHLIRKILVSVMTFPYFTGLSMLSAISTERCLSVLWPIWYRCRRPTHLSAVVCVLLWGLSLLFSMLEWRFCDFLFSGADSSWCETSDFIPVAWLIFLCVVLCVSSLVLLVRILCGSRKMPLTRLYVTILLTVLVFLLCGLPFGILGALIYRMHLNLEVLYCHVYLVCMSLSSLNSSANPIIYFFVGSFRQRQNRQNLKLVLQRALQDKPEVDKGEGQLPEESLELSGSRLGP

Compound | IC50 (MRGPRX4; [2]) | IC50 (MRGPRX4; [3]) | IC50 (MRGPRX4; [4]) | IC50 (MRGPRX4; [5]) | IC50 (MRGPRX4; [6]) | IC50 (MRGPRX4; [7]) | IC50 (MRGPRX4; [8]) | AUC [1] | Cmax [1] | T-1/2 [1]
O=C(O)c1cccc(COc2ccc(C(F)(F)F)cc2Cl)n1 [Compound 1-56, 6-((2-chloro-4-(trifluoromethyl)phenoxy)methyl)picolinic acid] | 16 nM | < 100 nM | 28 nM | 30 nM | 24 nM | 21 nM | 32 nM | 880 μMxhr | 162 µM | 3.2 h
O=C(O)c1cc(COc2ccc(C(F)(F)F)cc2Cl)ccc1F [Compound 1-85, 5-((2-chloro-4-(trifluoromethyl)phenoxy)methyl)-2-fluorobenzoic acid] |  | < 100 nM | 20 nM | 30 nM | 15 nM | 41 nM | 29 nM | 1069 μMxhr | 239 µM | 4.7 h
Cc1cc(COc2ccc(C(F)(F)F)cc2Cl)cc(C(=O)O)c1 [Compound 4-10, 3-((2-chloro-4-(trifluoromethyl)phenoxy)methyl)-5-methylbenzoic acid] |  | < 100 nM | 16 nM | 22 nM | 15 nM | 35 nM | 21 nM | 974 μMxhr | 260 µM | 4.6 h
CCc1cc(COc2ccc(C(F)(F)F)cc2Cl)nc(C(=O)O)c1 [Compound 42-3] | 17 nM | < 100 nM | 16 nM | 16 nM | 7 nM | 21 nM | 28 nM | 4700 μMxhr | 460 µM | 5.4 h
O=C(O)c1cccc(COc2ccc(Cl)cc2Cl)c1F [Compound 4-1, 3-((2,4-dichlorophenoxy)methyl)-2-fluorobenzoic acid] |  | < 100 nM | 27 nM | 55 nM |  |  | 81 nM | 1503 μMxhr | 231 µM | 5.9 h
O=C(O)c1cccc(COc2ccc(C(F)(F)F)cc2Cl)c1F [Compound 1-55, 3-((2-chloro-4-(trifluoromethyl)phenoxy)methyl)-2-fluorobenzoic acid] | 16 nM | < 100 nM | 6 nM | 22 nM | 11 nM | 23 nM | 14 nM | 2150 μMxhr | 230 µM | 11.2 h
Cc1cc(COc2ccc(C(F)(F)F)cc2C)cc(C(=O)O)c1 [Compound 4-11] |  | < 100 nM | 24 nM | 63 nM | 25 nM | 35 nM | 41 nM | 572 μMxhr | 257 µM | 3.6 h
O=C(O)c1cccc(COc2ccc(C(F)(F)F)cc2Cl)c1 [Compound 1-29] |  | < 100 nM | 20 nM | 46 nM | 25 nM | 16 nM | 46 nM | 615 μMxhr | 196 µM | 4.6 h
O=C(O)c1cccc(COc2ccc(Cl)cc2Cl)c1 [Compound 1-18] | 48 nM | < 100 nM | 57 nM | 130 nM | 40 nM | 230 nM | 130 nM | 376 μMxhr | 113 µM | 4.2 h
O=C(O)c1cc(F)cc(COc2ccc(C(F)(F)F)cc2Cl)c1 [Compound 1-65, 3-((2-chloro-4-(trifluoromethyl)phenoxy)methyl)-5-fluorobenzoic acid] | 13 nM | < 100 nM | 9 nM | 28 nM | 23 nM | 21 nM | 17 nM | 1037 μMxhr | 220 µM | 4.8 h
O=C(O)c1cccc(COc2ccc(Cl)cc2Cl)n1 [Compound 1-115] |  | < 100 nM | 81 nM | 230 nM | 47 nM |  | 180 nM | 1206 μMxhr | 306 µM | 3.0 h
COc1c(COc2ccc(Cl)cc2Cl)cccc1C(=O)O [Compound 6-1, 3-((2,4-dichlorophenoxy)methyl)-2-methoxybenzoic acid] |  | 1000 to 2500 nM |  |  |  |  |  |  |  | 
O=C(O)c1cccc(COc2ccc(Cl)c(Cl)c2Cl)c1 [Compound 1-78] | 20 nM | < 100 nM | 7 nM | 24 nM | 21 nM | 13 nM | 24 nM | 219 μMxhr | 57 µM | 4.0 h
Cc1cc(Cl)ccc1OCc1cccc(C(=O)O)c1F [Compound 1-63] |  | < 100 nM |  |  |  |  |  |  |  | 
O=C(N[C@@H](Cc1c[nH]c2ccccc12)C(=O)O)c1cccc(COc2ccc(C(F)(F)F)cc2Cl)c1 [Compound 54-5] |  | 100 to 500 nM |  |  |  |  |  |  |  | 
O=C(O)c1cccc(CNc2ccc3ccccc3c2)c1 [Compound 12-2] |  | 500 to 1000 nM |  |  |  |  |  |  |  | 
N#Cc1cccc(COc2ccc(C(F)(F)F)cc2Cl)c1 [Compound 17-1, 3-((2-chloro-4-(trifluoromethyl)phenoxy)methyl)benzonitrile] |  | 100 to 500 nM |  |  |  |  |  |  |  | 
CCCc1cc(COc2ccc(C(F)(F)F)cc2Cl)nc(C(=O)O)c1 [Compound 39-1, 6-((2-chloro-4-(trifluoromethyl)phenoxy)methyl)-4-propylpicolinic acid] |  | < 100 nM |  |  |  |  |  |  |  | 

Compound | IC50 (MRGPRX4; [2]) | IC50 (MRGPRX4; [3]) | IC50 (MRGPRX4; [4]) | IC50 (MRGPRX4; [5]) | IC50 (MRGPRX4; [6]) | IC50 (MRGPRX4; [7]) | IC50 (MRGPRX4; [8]) | AUC [1] | Cmax [1] | T-1/2 [1]
O=C(O)c1cccc(COc2ccc(Cl)cc2C(F)(F)F)n1 [Compound 1-31] | 11 nM | < 100 nM | 10 nM | 5 nM | 5 nM | 7 nM | 9 nM |  |  | 
FC(F)(F)c1ccc(OCc2cccc(-c3nc[nH]n3)c2)c(Cl)c1 [Compound 45-2, 3-(3-((2-chloro-4-(trifluoromethyl)phenoxy)methyl)phenyl)-1H-1,2,4-triazole] |  | 500 to 1000 nM |  |  |  |  |  |  |  | 
NC(=O)c1cccc(COc2ccc(C(F)(F)F)cc2Cl)c1 [Compound 45-1, 3-((2-chloro-4-(trifluoromethyl)phenoxy)methyl)benzamide] |  | 100 to 500 nM |  |  |  |  |  |  |  | 
O=C(O)c1cccc(COc2ccc(C(F)(F)F)cn2)c1 [Compound 10-1, 3-(((5-(trifluoromethyl)pyridin-2-yl)oxy)methyl)benzoic acid] |  | 1000 to 2500 nM |  |  |  |  |  |  |  | 
O=C(N[C@@H](CO)C(=O)O)c1cccc(COc2ccc(C(F)(F)F)cc2Cl)c1 [Compound 54-9] |  | 100 to 500 nM |  |  |  |  |  |  |  | 
FC(F)(F)c1ccc(OCc2cccc(-c3nnn[nH]3)c2)cc1Cl [Compound 17-2] |  | < 100 nM |  |  |  |  |  |  |  | 
CCOC(=O)c1cccc(COc2ccc(C(F)(F)F)cc2Cl)c1F [Compound 56-1, ethyl 3-((2-chloro-4-(trifluoromethyl)phenoxy)methyl)-2-fluorobenzoate] |  | 100 to 500 nM |  |  |  |  |  |  |  | 
O=C(O)c1cccc(COc2ccc3sccc3c2)c1F [Compound 4-22] |  | 100 to 500 nM |  |  |  |  |  |  |  | 
NC(=O)C[C@H](NC(=O)c1cccc(COc2ccc(C(F)(F)F)cc2Cl)c1)C(=O)O [Compound 55-1, (3-((2-chloro-4-(trifluoromethyl)phenoxy)methyl)benzoyl)-L-asparagine] |  | 100 to 500 nM |  |  |  |  |  |  |  | 
COC(=O)c1cccc(COc2ccc3ccccc3c2)n1 [Compound 1-12] |  | < 100 nM |  |  |  |  |  |  |  | 
Fc1cc(COc2ccc(C(F)(F)F)cc2Cl)cc(-c2nnn[nH]2)c1 [Compound 17-14] |  | < 100 nM |  |  |  |  |  |  |  | 
COC(=O)c1cccc(COc2ccc(C#N)cc2Cl)c1 [Compound 1-3] |  | 1000 to 2500 nM |  |  |  |  |  |  |  | 
Nc1cccc(COc2ccc(C(F)(F)F)cc2Cl)c1 [Compound 65-1, 3-((2-chloro-4-(trifluoromethyl)phenoxy)methyl)aniline] |  | 500 to 1000 nM |  |  |  |  |  |  |  | 
CCc1cc(COc2ccc(Cl)c(Cl)c2Cl)nc(C(=O)O)c1 [Compound 42-2] |  | < 100 nM |  |  |  |  |  |  |  | 
Cc1cc(CNc2ccc(C(F)(F)F)cc2Cl)nc(C(=O)O)c1 [Compound 57-1, 6-(((2-chloro-4-(trifluoromethyl)phenyl)amino)methyl)-4-methylpicolinic acid] |  | < 100 nM |  |  |  |  |  |  |  | 
Cc1cc(C(F)(F)F)ccc1OCc1cc(F)cc(C(=O)O)c1 [Compound 9-2] |  | < 100 nM |  |  |  |  |  |  |  | 
NCc1cccc(COc2ccc(Cl)cc2Cl)c1 [Compound 7-1, (3-((2,4-dichlorophenoxy)methyl)phenyl)methanamine] |  | 100 to 500 nM |  |  |  |  |  |  |  | 
NCCNC(=O)c1cccc(COc2ccc(C(F)(F)F)cc2Cl)c1 [Compound 53-2] |  | 1000 to 2500 nM |  |  |  |  |  |  |  | 
